Data reported in patent US20060247261A1 (priority 2002, published 2006).

Molecular target: T1, human cannabinoid CB2 receptor (Homo sapiens, UniProt P34972)
T1 construct: expressed in transfected cells; host or cells: Saccharomyces cerevisiae strain MMY23 (expresses a chimeric Gpa1/human Galpha-i3 G-protein alpha subunit)
Assay: Cannabinoid CB2 receptor agonist activity, yeast reporter assay
Assay type: cell-based
Settings: for Emax: read-out: efficacy (Emax) at the cloned human cannabinoid CB2 receptor; for activity in the CB2 assay (in words): CB2 assay described herein
Source text: Yeast (Saccharomyces cerevisiae) cells expressing the human cannabinoid CB2 receptor were generated by integration of an expression cassette into the ura3 chromosomal locus of yeast strain MMY23. This cassette consisted of DNA sequence encoding the human CB2 receptor flanked by the yeast GPD promoter to the 5′ end of CB2 and a yeast transcriptional terminator sequence to the 3′ end of CB2. MMY23 expresses a yeast/mammalian chimeric G-protein alpha subunit in which the C-terminal 5 amino acids of Gpa1 are replaced with the C-terminal 5 amino acids of human Gαi3 (as described in Brown et al. (2000), Yeast 16:11-22).
Agonists were prepared as 10 mM stocks in DMSO. […] Agonist solutions in DMSO (1% final assay volume) were transferred into black, clear bottom, microtitre plates from NUNC (96- or 384-well). […] Fluorescence was plotted against compound concentration and iteratively curve fitted using a four parameter fit to generate a concentration effect value.

T1 sequence (P34972 whole entry): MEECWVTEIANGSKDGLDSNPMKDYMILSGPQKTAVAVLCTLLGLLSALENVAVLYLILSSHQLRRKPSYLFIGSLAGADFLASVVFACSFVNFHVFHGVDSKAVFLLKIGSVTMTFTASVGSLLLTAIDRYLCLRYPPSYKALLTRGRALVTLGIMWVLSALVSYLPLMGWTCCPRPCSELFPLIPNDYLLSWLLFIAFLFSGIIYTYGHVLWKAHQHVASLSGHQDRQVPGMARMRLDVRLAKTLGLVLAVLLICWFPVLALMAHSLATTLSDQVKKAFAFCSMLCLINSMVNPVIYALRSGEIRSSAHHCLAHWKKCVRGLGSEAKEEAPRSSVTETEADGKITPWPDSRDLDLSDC

Row | SMILES | EC50 | Emax | activity in the CB2 assay (in words)
1 | CC(C)(C)OC(=O)Nc1ccc(CNC(=O)c2cnc(Nc3cccc(Cl)c3)nc2C(F)(F)F)cc1 [Example 107] | > 1000 nM | < 50% | 
2 | CN(Cc1ccccc1)C(=O)c1cnc(Nc2cccc(C#N)c2)nc1C(F)(F)F [Example 48, 2-(3-Cyano-phenylamino)-4-trifluoromethyl-pyrimidine-5-carboxylic acid N-benzyl-N-methyl-amide] | > 1000 nM | < 50% | 
3 | CN(Cc1ccccc1)C(=O)c1cnc(Nc2cccc(Cl)c2)nc1C(F)(F)F [Example 3, 2-(3-Chlorophenylamino)-4-trifluoromethylpyrimidine-5-carboxylic acid N-benzyl-N-methylamide] | 20 to 1000 nM | > 50% | 
4 | O=C(NCc1ccccc1)c1cnc(Nc2cccc(F)c2)nc1C(F)(F)F [Example 12, 2-(3-Fluorophenylamino)-4-trifluoromethylpyrimidine-5-carboxylic acid benzyl-amide] | 20 to 1000 nM | > 50% | 
5 | COc1ccccc1Nc1ncc(C(=O)NCc2ccccc2)c(C(F)(F)F)n1 [Example 15, 2-(2-Methoxyphenylamino)-4-trifluoromethylpyrimidine-5-carboxylic acid benzyl-amide] | 20 to 1000 nM | > 50% | 
6 | CN(Cc1ccccc1)C(=O)c1cnc(Nc2ccc(Cl)cc2Cl)nc1C(F)(F)F [Example 54, 2-(2,4-Dichloro-phenylamino)-4-trifluoroniethyl-pyrimidine-5-carboxylic acid N-benzyl-N methyl-amide] | > 1000 nM | < 50% | 
7 | O=C(NCc1ccncc1)c1cnc(Nc2cc(Cl)cc(Cl)c2)nc1C(F)(F)F [Example 22, 2-(3,5-Dichlorophenylamino)-4-trifluoromethylpyrimidine-5-carboxylic acid (pyridin-4-ylmethyl)amide] | 20 to 1000 nM | > 50% | 
8 | O=C(NCc1ccc(F)cc1)c1cnc(Nc2ccc(Cl)c(Cl)c2)nc1C(F)(F)F [Example 102, 2-(3,4-Dichloro-phenylamino)-4-trifluoromethyl-pyrimidine-5-carboxylic acid 4-fluoro-benzylamide] | 20 to 1000 nM | > 50% | 
9 | N#Cc1ccc(CNC(=O)c2cnc(Nc3cc(Cl)ccc3Cl)nc2C(F)(F)F)cc1 [Example 67, 2-(2,5-Dichloro-phenylamino)-4-trifluoromethyl-pyrimidine-5-carboxylic acid N-(4-cyano-benzyl)amide] | > 1000 nM | < 50% | 
10 | O=C(NCc1ccccc1Cl)c1cnc(Nc2cccc(Cl)c2)nc1C(F)(F)F [Example 51, 2-(3-Chloro-phenylamino)-4-trifluoromethyl-pyrimidine-5-carboxylic acid N-(2-chlorobenzyl)amide] | > 1000 nM | < 50% | 
11 | O=C(NCc1ccccc1)c1cnc(Nc2ccc(Cl)cc2Cl)nc1C(F)(F)F [Example 8, 2-(2,4-Dichlorophenylamino)-4-trifluoromethyloyrimidine-5-carboxyllc acid benzyl-amide] | 20 to 1000 nM | > 50% | 
12 | O=C(NCc1ccccc1)c1cnc(Nc2c(Cl)cccc2Cl)nc1C(F)(F)F [Example 98, 2-(2,6-Dichloro-phenylamino)-4-trifluoromethyl-pyrimidine-5-carboxylic acid benzylamide] | 20 to 1000 nM | > 50% | 
13 | CN(Cc1ccccc1)C(=O)c1cnc(Nc2ccc(C(C)(C)C)cc2)nc1C(F)(F)F [2-(4-tert-butyl-phenylamino)-4-trifluoromethyl-pyrimidine-5-carboxylic acid benzyl-methyl-amide] |  |  | inactive
14 | O=C(NCc1ccc(F)cc1F)c1cnc(Nc2cccc(Cl)c2)nc1C(F)(F)F [Example 103, 2-(3-Chloro-phenylamino)-4-trifluoromethyl-pyrimidine-5-carboxylic acid 2,4-difluoro-benzylamide] | 20 to 1000 nM | > 50% | 
15 | CN(Cc1ccccc1)C(=O)c1cnc(Nc2cccc(Cl)c2Cl)nc1C(F)(F)F [Example 7, 2-(2,3-Dichlorophenylamino)-4-trifluoromethylpyrimidine-5-carboxylic acid N-benzyl-N-methylamide] | 20 to 1000 nM | > 50% | 
16 | O=C(NCc1ccnc(F)c1)c1cnc(Nc2cccc(Cl)c2Cl)nc1C(F)(F)F [Example 94, 2-(2,3-Dichloro-phenylamino)-4-trifluoromethyl-pyrimidine-5-carboxylic acid (2-fluoro-pyridin-4-ylmethyl)-amide] | 20 to 1000 nM | > 50% | 
17 | O=C(NCc1ccc(F)cc1)c1cnc(Nc2ccc(F)c(Cl)c2)nc1C(F)(F)F [Example 82, 2-(3-Chloro-4-fluoro-phenylamino)-4-trifluoromethyl-pyrimidine-5-carboxylic acid 4-fluoro-benzylamide] | 20 to 1000 nM | > 50% | 

Row | SMILES | EC50 | Emax | activity in the CB2 assay (in words)
18 | O=C(NCc1ccnc(F)c1)c1cnc(Nc2cccc(Cl)c2)nc1C(F)(F)F [Example 29, 2-(3-Chloro-phenylamino)-4-trifluoromethyl-pyrimidine-5-carboxylic acid (2-fluoro-pyridin-4-ylmethyl)-amide] | 20 to 1000 nM | > 50% | 
19 | O=C(NCc1ccnc(F)c1)c1cnc(Nc2cccc(Br)c2)nc1C(F)(F)F [Example 88, 2-(3-Bromo-phenylamino)-4-trifluoromethyl-pyrimidine-5-carboxylic acid (2-fluoro-pyridin4-ylmethyl)-amide] | 20 to 1000 nM | > 50% | 
20 | CCN(Cc1ccccc1)C(=O)c1cnc(Nc2ccccc2Cl)nc1C(F)(F)F [Example 53, 2-(2-Chloro-phenylamino)-4-trifluoromethyl-pyrimidine-5-carboxylic acid N-benzyl-N-ethyl-amide] | > 1000 nM | < 50% | 
21 | O=C(NCc1ccccc1)c1cnc(Nc2ccccc2Cl)nc1C(F)(F)F [Example 43, 2-(2-Chloro-phenylamino)-4-trifluoromethyl-pyrimidine-5-carboxylic acid N-benzylamide] | > 1000 nM | < 50% | 
22 | O=C(NCc1ccc(F)c(Cl)c1)c1cnc(Nc2cccc(Cl)c2)nc1C(F)(F)F [Example 109, 2-(3-Chloro-phenylamino)-4-trifluoromethyl-pyrimidine-5-carboxylic acid 3-chloro,4-fluoro-benzylamide] | > 1000 nM | < 50% | 
23 | O=C(NCc1ccccc1)c1cnc(Nc2cc(Cl)cc(Cl)c2)nc1C(F)(F)F [Example 11, 2-(3,5-Dichlorophenylamino)trifluoromethylpyrimidine-5-carboxylic acid benzyl-amide] | 20 to 1000 nM | > 50% | 
24 | O=C(NCc1ccccc1Br)c1cnc(Nc2cccc(Cl)c2)nc1C(F)(F)F [2-(3-Chloro-phenylamino)-4-trifluoromethyl-pyrimidine-5-carboxylic acid 2-bromo-benzylamide] |  |  | inactive
25 | O=C(NCc1ccc(F)cc1)c1cnc(Nc2c(Cl)cccc2Cl)nc1C(F)(F)F [Example 70, 2-(2,6-Dichloro-phenylamino)-4-trifluoromethyl-pyrimidine-5-carboxylic acid N-(4-fluoro-benzyl)amide] | > 1000 nM | < 50% | 
26 | O=C(NCc1ccc(F)cc1)c1cnc(Nc2cccc(Cl)c2Cl)nc1C(F)(F)F [Example 99, 2-(2,3-Dichloro-phenylamino)-4-trifluoromethyl-pyrimidine-5-carboxylic acid 4-fluoro-benzylamide] | 20 to 1000 nM | > 50% | 
27 | O=C(NCc1ccnc(F)c1)c1cnc(Nc2ccc(Cl)cc2Cl)nc1C(F)(F)F [Example 95, 2-(2,4-Dichloro-phenylamino)-4-trifluoromethyl-pyrimidine-5-carboxylic acid (2-fluoro-pyridin-4-ylmethyl)-amide] | 20 to 1000 nM | > 50% | 
28 | O=C(NCc1ccc(F)cc1)c1cnc(Nc2ccc(Cl)cc2Cl)nc1C(F)(F)F [Example 100, 2-(2,4-Dichloro-phenylamino)-4-trifluoromethyl-pyrimidine-5-carboxylic acid 4-fluoro-benzylamide] | 20 to 1000 nM | > 50% | 
29 | CN(Cc1ccccc1)C(=O)c1cnc(Nc2cccc(Br)c2)nc1C(F)(F)F [Example 14, 2-(3-Bromophenylamino)-4-trifluoromethylpyrimidine-5-carboxylic acid N-benzyl-N-methylamide] | 20 to 1000 nM | > 50% | 
30 | CC(C)(C)c1ccc(Nc2ncc(C(=O)NCc3ccccc3)c(C(F)(F)F)n2)cc1 [2-(4-tert-butyl-phenylamino)-4-trifluoromethyl-pyrimidine-5-carboxylic acid benzylamide] |  |  | inactive
31 | O=C(NCc1ccc(F)cc1)c1cnc(Nc2cc(Cl)cc(Cl)c2)nc1C(F)(F)F [Example 25, 2-(3,5-Dichlorophenylamino)trifluoromethylpyrimidine-5-carboxylic acid 4-fluorobenzyl-amide] | 20 to 1000 nM | > 50% | 
32 | O=C(NCc1ccnc(F)c1)c1cnc(Nc2cccc(F)c2)nc1C(F)(F)F [Example 89, 2-(3-Fluoro-phenylamino)-4-trifluoromethyl-pyrimidine-5-carboxylic acid (2-fluoro-pyridin-4-ylmethyl)-amide] | 20 to 1000 nM | > 50% | 
33 | COc1cccc(CNC(=O)c2cnc(Nc3cccc(Cl)c3)nc2C(F)(F)F)c1 [Example 50, 2-(3-Chloro-phenylamino)-4-trifluoromethyl-pyrimidine-5-carboxylic acid N-(3-methoxybenzyl)amide] | > 1000 nM | < 50% | 
